From patent EP4603105A1, “PHARMACEUTICAL COMPOSITION CONTAINING CYCLIC COMPOUND HAVING SELECTIVE KRAS INHIBITORY EFFECT AGAINST HRAS AND NRAS” (CHUGAI SEIYAKU KABUSHIKI KAISHA, priority 2022, dated 2024)
Like-named read-outs stand apart in the source and are kept apart here.

Legend:
[1] = molecular target: GDP-bound KRAS wild-type protein (Homo sapiens, UniProt P01116); assay: Binding to KRAS by surface plasmon resonance (SPR), dissociation constant KD
How it was run: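 Affinity is measured by surface plasmon resonance at 30°C against captured, GDP-loaded RAS carrying a biotinylated Avi tag. Compounds are titrated by single-cycle kinetics, and KD comes from a 1:1 fit.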

HRAS wild-type protein = HRAS wild-type protein (Homo sapiens, UniProt P01112); assay: Binding to HRAS by surface plasmon resonance (SPR), KD and KD ratio to KRAS
Chain of HRAS wild-type protein (P01112 whole entry): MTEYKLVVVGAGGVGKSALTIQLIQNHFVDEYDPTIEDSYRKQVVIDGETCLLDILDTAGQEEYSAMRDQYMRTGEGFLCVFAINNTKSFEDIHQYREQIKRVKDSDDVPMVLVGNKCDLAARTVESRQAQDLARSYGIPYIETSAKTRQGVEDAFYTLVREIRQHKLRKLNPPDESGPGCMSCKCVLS
How it was run: (§1)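 Recombinant RAS proteins bearing a biotinylated Avi tag and loaded with GDP served as the captured ligand, recaptured fresh every cycle. Binding responses were referenced to an uncoated surface and a buffer-only blank cycle. Dissociation constants were obtained by 1:1 model fitting at 30°C.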

[2] = tested on: human lung cancer strain NCI-H441; assay: NCI-H441 cell proliferation inhibitory activity (CellTiter-Glo, 4 days); type: cell-based; details: read-out: NCl-H441 IC50
How it was run: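 Signal came from […] measured per well once the reagent was added. Beforehand, cells were cultured at 37°C and 5% carbon dioxide on a compound series serially diluted in dimethyl sulfoxide.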

[3] = molecular target: GDP-bound NRAS wild-type protein (Homo sapiens, UniProt P01111); assay: Binding to NRAS by surface plasmon resonance (SPR), KD and KD ratio to KRAS
Chain of GDP-bound NRAS wild-type protein (P01111 whole entry): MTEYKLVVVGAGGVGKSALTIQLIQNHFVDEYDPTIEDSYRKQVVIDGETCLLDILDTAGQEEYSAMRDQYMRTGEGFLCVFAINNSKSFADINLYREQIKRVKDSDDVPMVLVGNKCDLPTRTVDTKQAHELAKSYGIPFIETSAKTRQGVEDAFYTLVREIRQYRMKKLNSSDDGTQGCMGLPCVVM
How it was run: as §1

[4] = ratio of KD for HRAS wild-type protein to KD for KRAS
[5] = ratio of KD for GDP-bound NRAS wild-type protein to KD for KRAS
[6] = Single Cycle Kinetics, 1:1 binding model
[7] = ratio of KD with respect to HRAS wild-type protein to KD with respect to KRAS
[8] = 50% proliferation inhibitory concentration, four days
[9] = ratio of KD with respect to GDP-bound NRAS wild-type protein to KD with respect to KRAS

Chain of GDP-bound KRAS wild-type protein (P01116 1-188 isoform P01116-2): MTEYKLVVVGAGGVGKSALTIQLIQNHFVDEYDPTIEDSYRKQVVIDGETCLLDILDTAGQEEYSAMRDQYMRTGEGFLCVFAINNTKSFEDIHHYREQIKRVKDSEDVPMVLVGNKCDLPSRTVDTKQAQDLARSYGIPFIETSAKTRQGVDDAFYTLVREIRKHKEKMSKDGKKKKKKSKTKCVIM

Compound	Kd ([1]; 1:1 binding model) [nM]	HRAS /KRAS (HRAS wild-type protein; [4])	IC50 ([2]; NCI-H441 cells, 4 days) [nM]	NRAS /KRAS [3, 5]	Kd ([1]; Single Cycle Kinetics) [nM]	Kd [1, 6] [nM]	HRAS /KRAS (HRAS wild-type protein; [7])	IC50 [2, 8] [nM]	NRAS /KRAS [3, 9]
CCC[C@H]1C(=O)N[C@@H]([C@@H](C)CC)C(=O)N2CCC[C@H]2C(=O)N(C)[C@H]2C/C=C\CCN(C2=O)[C@@H](Cc2ccc(C(F)F)cc2)C(=O)N(C)CC(=O)N[C@@H](CCc2ccc(Cl)c(Cl)c2)C(=O)N2C[C@H](OCC)C[C@H]2C(=O)NC2(CC(C)(C)C2)C(=O)N(C)[C@@H](C(CC)CC)C(=O)N(C)[C@H](C(=O)N(C)C)CC(=O)N1C [PP2637]	1	A (a compound having 10 or more and less than 20 is denoted as A)	61.4	AA (a compound having 20 or more is denoted as AA)					
CCC[C@H]1C(=O)N[C@@H]([C@@H](C)CC)C(=O)N(C)CC(=O)N(C)[C@H]2C/C=C\CCN(C2=O)[C@@H](Cc2ccc(C(F)(F)F)cc2)C(=O)N(C)CC(=O)N[C@@H](CCc2ccc(C(F)(F)F)c(Cl)c2)C(=O)N2CC[C@H](OC)[C@H]2C(=O)N(C)C2(CCC2)C(=O)N(C)[C@@H](C2CCCC2)C(=O)N(C)[C@H](C(=O)N(C)C)CC(=O)N1C [PP3231]		A (a compound having 10 or more and less than 20 is denoted as A)	7.4	A (a compound having 10 or more and less than 20 is denoted as A)	0.064				
CC[C@H](C)[C@@H]1NC(=O)[C@H](CC(C)C)N(C)C(=O)C[C@@H](C(=O)N(C)C)N(C)C(=O)[C@H](C2CCCC2)N(C)C(=O)C2(CCCC2)NC(=O)[C@@H]2CCN2C(=O)[C@H](CCc2cc(F)c(C(F)(F)F)c(F)c2)NC(=O)CN(C)C(=O)[C@H](Cc2ccc(C(F)(F)F)cc2)N2CC/C=C(/F)C[C@@H](C2=O)N(C)C(=O)CN(C)C1=O [PP3521]		B (a compound having 3 or more and less than 10 is denoted as B)	36.6	B (a compound having 3 or more and less than 10 is denoted as B)	2.3				
C#CCN1CC(=O)N(C)[C@H]2C/C=C\CCN(C2=O)[C@@H](Cc2ccc(C(F)F)cc2)C(=O)N(C)CC(=O)N[C@@H](CCc2cc(F)c(C(F)(F)F)c(F)c2)C(=O)N2C[C@H](OC(C)C)C[C@H]2C(=O)N(C)C2(CCC2)C(=O)N(C)[C@@H](C(CC)CC)C(=O)N(C)[C@H](C(=O)N(C)C)CC(=O)N(C)[C@@H](COCCC)C(=O)N[C@@H]([C@@H](C)CC)C1=O [PP3490]		A (a compound having 10 or more and less than 20 is denoted as A)	23.7	A (a compound having 10 or more and less than 20 is denoted as A)	0.3				
CCOC[C@H]1C(=O)N[C@@H]([C@@H](C)CC)C(=O)N2CCC[C@H]2C(=O)N(C)[C@H]2C/C=C\CCN(C2=O)[C@@H](Cc2ccc(C)cc2)C(=O)N(C)CC(=O)N[C@@H](CCc2cc(F)c(C(F)(F)F)c(F)c2)C(=O)N2C[C@H](OCC)C[C@H]2C(=O)NC2(CC(C)(C)C2)C(=O)N(C)[C@@H](C2CCCC2)C(=O)N(C)[C@H](C(=O)N(C)CC)CC(=O)N1C [PP2428]	0.62	A (a compound having 10 or more and less than 20 is denoted as A)	4.8	A (a compound having 10 or more and less than 20 is denoted as A)					
CCO[C@@H]1C[C@H]2C(=O)NC3(CCC3)C(=O)N(C)[C@@H](C3CCCC3)C(=O)N(C)[C@H](C(=O)N3CCOCC3)CC(=O)N(C)[C@@H](CC(F)F)C(=O)N[C@@H]([C@@H](C)CC)C(=O)N(C)CC(=O)N(C)[C@H]3CCCCCN(C3=O)[C@@H](Cc3ccc(F)cc3)C(=O)N(C)CC(=O)N[C@@H](CCc3cc(F)c(C(F)(F)F)c(F)c3)C(=O)N2C1 [PP1177]						0.081	B (a compound having 3 or more and less than 10 is denoted as B)	32.5	B (a compound having 3 or more and less than 10 is denoted as B)
CCCO[C@@H]1C[C@H]2C(=O)NC3(CC(C)(C)C3)C(=O)N(C)[C@@H](C3CCCC3)C(=O)N(C)[C@H](C(=O)N(C)CC)CC(=O)N(C)[C@@H](COCC)C(=O)N[C@@H]([C@@H](C)CC)C(=O)N3CCC[C@H]3C(=O)N(C)[C@H]3C/C=C\CCN(C3=O)[C@@H](Cc3ccc(C)cc3)C(=O)N(C)CC(=O)N[C@@H](CCc3ccc(C(F)(F)F)c(Cl)c3)C(=O)N2C1 [PP3463]		A (a compound having 10 or more and less than 20 is denoted as A)	50.4	A (a compound having 10 or more and less than 20 is denoted as A)	0.97				
CCO[C@@H]1C[C@H]2C(=O)NC3(CCC3)C(=O)N(C)[C@@H](C3CCCC3)C(=O)N(C)[C@H](C(=O)N(C)C)CC(=O)N(C)[C@@H](Cc3cccc(C#N)c3)C(=O)N[C@@H]([C@@H](C)CC)C(=O)N(C)CC(=O)N(C)[C@H]3CCCCCN(C3=O)[C@@H](Cc3ccc(F)cc3)C(=O)N(C)CC(=O)N[C@@H](CCc3cc(F)c(C(F)(F)F)c(F)c3)C(=O)N2C1 [PP1156]						0.063	B (a compound having 3 or more and less than 10 is denoted as B)	33.7	B (a compound having 3 or more and less than 10 is denoted as B)
CCO[C@@H]1C[C@H]2C(=O)NC3(CC(C)(C)C3)C(=O)N(C)[C@@H](C(CC)CC)C(=O)N(C)[C@H](C(=O)N(C)C)CC(=O)N(C)[C@@H](COC)C(=O)N[C@@H]([C@@H](C)CC)C(=O)N(C)CC(=O)N(C)[C@H]3C/C=C\CCN(C3=O)[C@@H](CC3CCC(F)(F)CC3)C(=O)N(C)CC(=O)N[C@@H](CCc3ccc(C(F)(F)F)c(Cl)c3)C(=O)N2C1 [PP2444]	0.59	A (a compound having 10 or more and less than 20 is denoted as A)	32.3	A (a compound having 10 or more and less than 20 is denoted as A)					
CCO[C@H](C)[C@@H]1NC(=O)[C@H](CC(C)C)N(C)C(=O)C[C@@H](C(=O)N(C)C)N(C)C(=O)[C@H](C2CCCC2)N(C)C(=O)C2(CC(C)(C)C2)NC(=O)[C@@H]2C[C@H](C)CN2C(=O)[C@H](CCc2ccc(C(F)(F)F)c(OC)c2)NC(=O)CN(C)C(=O)[C@H](Cc2ccc(C)cc2)N2CC/C=C\C[C@@H](C2=O)N(C)C(=O)CN(C)C1=O [PP2412]	0.15	B (a compound having 3 or more and less than 10 is denoted as B)	21	A (a compound having 10 or more and less than 20 is denoted as A)					
CCO[C@@H]1C[C@H]2C(=O)NC3(CCC3)C(=O)N(C)[C@@H](C(CC)CC)C(=O)N(C)[C@H](C(=O)N(C)C)CC(=O)N(C)[C@@H](CC3CCCC3)C(=O)N[C@@H]([C@@H](C)CC)C(=O)N(C)CC(=O)N(C)[C@H]3C/C=C\CCN(C3=O)[C@@H](CC3CCCCC3)C(=O)N(C)CC(=O)N[C@@H](CCc3cc(F)c(C(F)(F)F)c(F)c3)C(=O)N2C1 [PP1430]						0.85	A (a compound having 10 or more and less than 20 is denoted as A)	70.4	A (a compound having 10 or more and less than 20 is denoted as A)
CCO[C@@H]1C[C@H]2C(=O)NC3(CCCC3)C(=O)N(C)[C@@H](C3CCCC3)C(=O)N(C)[C@H](C(=O)N(C)C)CC(=O)N(C)[C@@H]([C@@H](C)OC)C(=O)N[C@@H]([C@@H](C)CC)C(=O)N(C3CC3)CC(=O)N(C)[C@H]3C/C=C\CCN(C3=O)[C@@H](Cc3ccc(C(F)(F)F)cc3)C(=O)N(C)CC(=O)N[C@@H](CCc3cc(F)c(C(F)(F)F)c(F)c3)C(=O)N2C1 [PP3476]		A (a compound having 10 or more and less than 20 is denoted as A)	15.2	A (a compound having 10 or more and less than 20 is denoted as A)	0.37				
